Results from patent US10501482B2, “Compounds for treating spinal muscular atrophy” (Hoffmann-La Roche Inc., priority 2013, dated 2019).
Where a name gives a salt, the structure may show the parent alone.

How the values were obtained:
[1] = system: full length SMN2 minigene mRNA (FL SMN2mini) in HEK293H cells stably transfected with the SMN2-A minigene construct; assay: SMN2 minigene mRNA splicing RT-qPCR assay in cultured cells; format: cell-based; settings: Homo sapiens, HEK293-H, 24 hours, 7-point concentration curve, concentration giving 1.5-fold FL SMN2mini mRNA vs vehicle, read-out: EC1.5x minigene (EC1.5x concentration for production of full length SMN2 minigene mRNA)
Protocol: The reverse transcription-quantitative PCR-based (RT-qPCR) assay is used to quantify the level of the full length SMN2 minigene (referred to herein by the term “FL SMN2mini”) mRNA containing SMN2 exon 7 in a HEK293H cell line stably transfected with said minigene and treated with a test compound.
The SMN2-A minigene construct was prepared as described in International Patent Application WO2009/151546A1 page 145 paragraph [00400] to page 147 paragraph [00412](incl. FIG. 1 and FIG. 3 therein).
HEK293H cells stably transfected with the SMN2-A minigene construct (10,000 cells/well) are seeded in 200 μL of cell culture medium (DMEM plus 10% FBS, with 200 μg/mL hygromycin) in 96-well flat-bottom plates and the plate is immediately swirled to ensure proper dispersal of cells and the formation of an even monolayer of cells. Cells are allowed to attach for 6 hours. […] A solution of test compound (1 μL, 200× in DMSO) is added to each cell-containing well and the plate is incubated for 24 hours in a cell culture incubator (37° C., 5% CO2, 100% relative humidity). 2 replicates are prepared for each test compound concentration. The cells are then lysed in the Cells-To-Ct lysis buffer and the lysate is stored at −80° C.
Full length SMN2-A minigene and GAPDH mRNA are quantified using the primers and probes referenced in Table 1. Primer SMN Forward A (SEQ ID NO.1) hybridizes to a nucleotide sequence in exon 7 (nucleotide 22 to nucleotide 40), primer SMN Reverse A (SEQ ID NO.2) hybridizes to a nucleotide sequence in the coding sequence of Firefly luciferase, SMN Probe A (SEQ ID NO.3) hybridizes to a nucleotide sequence in exon 7 (nucleotide 50 to nucleotide 54) and exon 8 (nucleotide 1 to nucleotide 21). The combination of these three oligonucleotides detects only SMN1 or SMN2 minigenes (RT-qPCR) and will not detect endogenous SMN1 or SMN2 genes.
The SMN forward and reverse primers are used at final concentrations of 0.4 μM. The SMN probe is used at a final concentration of 0.15 μM. The GAPDH primers are used at final concentrations of 0.2 μM and the probe at 0.15 μM.
The SMN2-minigene GAPDH mix (15 μL total volume) is prepared by combining 7.5 μL of 2×RT-PCR buffer, 0.4 μL of 25×RT-PCR enzyme mix, 0.75 μL of 20×GAPDH primer-probe mix, 4.0075 μL of water, 2 μL of 10-fold diluted cell lysate, 0.06 μL of 100 μM SMN forward primer, 0.06 μL of 100 μM SMN reverse primer, and 0.225 μL of 100 μM SMN probe.
PCR is carried out at the following temperatures for the indicated time: Step 1: 48° C. (15 min); Step 2: 95° C. (10 min); Step 3: 95° C. (15 sec); Step 4: 60° C. (1 min); then repeat Steps 3 and 4 for a total of 40 cycles.
Each reaction mixture contains both SMN2-A minigene and GAPDH primers/probe sets (multiplex design), allowing simultaneous measurement of the levels of two transcripts.
The increase in the abundance of the FL SMN2mini mRNA relative to that in cells treated with vehicle control is determined from real-time PCR data using a modified ΔΔCt method (as described in Livak and Schmittgen, Methods, 2001, 25:402-8). The amplification efficiency E is calculated from the slope of the amplification curve for FL SMN2mini and GAPDH individually. The abundance of FL SMN2mini and GAPDH mRNA are then calculated as (1+E)^−Ct, where Ct is the threshold value for each amplicon. The abundance of FL SMN2mini mRNA is normalized to GAPDH mRNA abundance. The normalized FL SMN2mini mRNA abundance from test compound-treated samples is then divided by normalized FL SMN2mini mRNA abundance from vehicle-treated cells to determine the level of FL SMN2mini mRNA relative to vehicle control.
Table 2 provides EC1.5x concentrations for production of full length SMN2 minigene mRNA that was obtained from the 7-point concentration data generated according to the above procedure for particular compounds of the present invention.

SMN protein = SMN protein assay (HTRF) in cultured SMA patient fibroblast cells; format: cell-based; settings: SMA Type 1 human fibroblasts GM03813, 48 hours; for EC1.5x SMN protein (EC1.5x concentration for SMN protein expression): 7-point concentration curve, concentration giving 1.5 times SMN protein vs vehicle; for max. fold increase (maximum fold increase of SMN protein): 7-point concentration data, fold vs vehicle control
Protocol: The SMN HTRF (homogeneous time resolved fluorescence) assay is used to quantify the level of SMN protein in SMA patient fibroblast cells treated with test compounds.
Cells are thawed and cultured in DMEM-10% FBS for 72 hours. Cells are trypsinized, counted and re-suspended to a concentration of 25,000 cells/mL in DMEM-10% FBS. The cell suspensions are plated at 5,000 cells per well in a 96 well microtiter plate and incubated for 3 to 5 hours. […] 1 μL of test compound solution is transferred to cell-containing wells and cells are incubated for 48 hours in a cell culture incubator (37° C., 5% CO2, 100% relative humidity). Triplicate samples are set up for each test compound concentration. After 48 hours, the supernatant is removed from the wells and 25 μL of the RIPA lysis buffer, containing protease inhibitors, is added to the wells and incubated with shaking at room temperature for 1 hour. 25 μL of the diluent is added and then 35 μL of the resulting lysate is transferred to a 384-well plate, where each well contains 5 μL of the antibody solution (1:100 dilution of anti-SMN d2 and anti-SMN kryptate in SMN reconstitution buffer). The plate is centrifuged for 1 minute to bring the solution to the bottom of the wells, then incubated overnight at room temperature. Fluorescence for each well of the plate at 665 nm and 620 nm is measured on an EnVision multilabel plate reader (Perkin-Elmer).
The normalized fluorescence signal is calculated for each sample, Blank and vehicle control well by dividing the signal at 665 nm by the signal at 620 nm. Normalizing the signal accounts for possible fluorescence quenching due to the matrix effect of the lysate. The ΔF value (a measurement of SMN protein abundance as a percent value) for each sample well is calculated by subtracting the normalized average fluorescence for the Blank control wells from the normalized fluorescence for each sample well, then dividing this difference by the normalized average fluorescence for the Blank control wells and multiplying the resulting value by 100. The ΔF value for each sample well represents the SMN protein abundance from test compound-treated samples. The ΔF value for each sample well is divided by the ΔF value for the vehicle control wells to calculate the fold increase in SMN protein abundance relative to the vehicle control. Table 3 provides EC1.5x concentrations for SMN protein expression that was obtained from the 7-point concentration data generated according to the above procedure for particular compounds of the present invention.
Table 4 provides the maximum fold increase of SMN protein that was obtained from the 7-point concentration data generated according to the above procedure for particular compounds of the present invention

SMILES | EC (1.5-fold) [1] | EC1.5x SMN protein (EC1.5x concentration for SMN protein expression) (SMN protein) | max. fold increase (maximum fold increase of SMN protein) (SMN protein)
Cc1cn2cc(NC(=O)c3ccc(N4CCNC(C)C4)cc3F)cc(C)c2n1 (racemic) [Example 37, rac-N-(2,8-dimethyl-imidazo[1,2-a]-pyridin-6-yl)-2-fluoro-4-(3-methylpiperazin-1-yl)benamide dihydrochloride] | 0.028 µM | 0.1196 µM | 1.7758
Cc1cn2cc(NC(=O)c3ccc(N4CCNC(C)C4)cc3)nc2c(C)n1 (racemic) [Example 2, rac-N-(6,8-dimethyl-imidazo[1,2-a]-pyrazin-2-yl)-4-(3-methylpiperazin-1-yl)benzamide] | 0.14 µM | 0.2984 µM | 1.8878
Cc1cn2cc(NC(=O)c3ccc(N4CCNC(C)C4)nc3)cc(C(F)(F)F)c2n1 (racemic) [Example 20, rac-N-(2-methyl-8-(trifluoromethyl)-imidazo[1,2-a]-pyridin-6-yl)-6-(3-methyl-piperazin-1-yl)-nicotinamide] | 0.489 µM | 0.8065 µM | 1.7789
Cc1cn2cc(NC(=O)c3ccc(N4CCN(C)CC4)nc3)nc2c(C)n1 [Example 6, N-(6,8-dimethyl-imidazo[1,2-a]-pyrazin-2-yl)-6-(4-methyl-piperazin-1-yl)nicotinarnide] | 0.233 µM | 0.5305 µM | 1.8047
Cc1cn2cc(NC(=O)c3ccc(C4=CCNCC4)nc3)ccc2n1.Cl [Example 77, N-(2-methylimidazo[1,2-a]pyridin-6-yl)-6-(1,2,3,6-tetrahydropyridin-4-yl)nicotinamide hydrochloride] | 0.0641 µM | 0.2279 µM | 1.6649
Cc1cn2cc(NC(=O)c3ccc(N4CCN5CCC[C@H]5C4)nc3)cc(C(F)(F)F)c2n1 [Example 21, (S)-6-(hexahydro-pyrrolo[1,2-a]-pyrazin-2(1H)-yl)-N-(2-methyl-8-(trifluoromethyl)-imidazo[1,2-a]-pyridin-6-yl)-nicotinarnide] | 0.386 µM | 0.6542 µM | 1.7755
COc1nc(N2CCNCC2)ccc1C(=O)Nc1cc(F)c2nc(C)cn2c1 [Example 64, N-(8-fluoro-2-methylimidazo[1,2-a]pyridin-6-yl)-2-methoxy-6-(piperazin-1-yl)nicotinamide] | 0.0291 µM | 0.1192 µM | 1.7581
Cc1cn2cc(NC(=O)c3ccc(N4CCN(C)CC4)nc3)cc(F)c2n1 [Example 32, N-(8-fluoro-2-methylimidazo-[1,2-a]pyridin-6-yl)-6-(4-methyl-piperazin-1-yl)-nicotinamide] | 0.0938 µM | 0.2028 µM | 1.7579
Cc1cn2cc(NC(=O)c3ccc(N4CCN[C@@H](C)C4)cc3)nc2c(C)n1 [Example 3, N-(6,8-Dimethyl-imidazo[1,2-a]-pyrazin-2-yl)-4-((S)-3-methyl-piperazin-1-yl)-benzamide] | 0.552 µM | 1.47 µM | 1.7558
Cc1cn2cc(NC(=O)c3ccc(N4CCNCC4)cn3)nc2c(C)n1 [Example 11, N-(6,8-dimethyl-imidazo[1,2-a]-pyrazin-2-yl)-5-(piperazin-1-yl)picolinamide] | 0.297 µM | 0.321 µM | 1.7143
